From PubChem BioAssay (NCI)
Values joined by “and” are separate entries in the source; they are usually repeats but may differ in a detail not shown here. Equal entries are not always repeated.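 Five concentrations, 48 hours, 96-well plates. TGI denotes the concentration required for complete inhibition of growth.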

How the values were obtained:
Experiment in all cases: NCI tumour cell line growth inhibition, 48 h
COLO 205 colon = test system: COLO 205 colon
SW-620 colon = test system: SW-620 colon
NCI-H23 lung = test system: NCI-H23 lung
SK-OV-3 ovarian = test system: SK-OV-3 ovarian
UACC-257 melanoma = test system: UACC-257 melanoma
NCI-H522 lung = test system: NCI-H522 lung
SF-268 CNS = test system: SF-268 CNS
SK-MEL-2 melanoma = test system: SK-MEL-2 melanoma
SNB-19 CNS = test system: SNB-19 CNS
NCI-H226 lung = test system: NCI-H226 lung
SF-539 CNS = test system: SF-539 CNS
RXF 393 renal = test system: RXF 393 renal
RPMI-8226 leukemia = test system: RPMI-8226 leukemia
786-0 renal = test system: 786-0 renal
HCC-2998 colon = test system: HCC-2998 colon
HOP-92 NSCLC = test system: HOP-92 NSCLC
MALME-3M melanoma = test system: MALME-3M melanoma
MCF7 breast = test system: MCF7 breast
MDA-MB-231 breast = test system: MDA-MB-231 breast
BT-549 breast = test system: BT-549 breast

Structure (SMILES) | TGI (COLO 205 colon) | TGI (SW-620 colon) | TGI (NCI-H23 lung) | TGI (SK-OV-3 ovarian) | TGI (UACC-257 melanoma) | TGI (NCI-H522 lung) | TGI (SF-268 CNS) | TGI (SK-MEL-2 melanoma) | TGI (SNB-19 CNS) | TGI (NCI-H226 lung) | TGI (SF-539 CNS) | TGI (RXF 393 renal) | TGI (RPMI-8226 leukemia) | TGI (786-0 renal) | TGI (HCC-2998 colon) | TGI (HOP-92 NSCLC) | TGI (MALME-3M melanoma) | TGI (MCF7 breast) | TGI (MDA-MB-231 breast) | TGI (BT-549 breast)
C[C@]12CCC3c4ccc(OC(=O)c5ccccc5)cc4CC[C@H]3C1CC[C@@H]2OC(=O)C12OC1CCC2=O (stereo partly drawn) | 7.49 µM | 4.86 µM | 9.76 µM | 33.4 µM | 14.8 µM | 10.8 µM | 14.6 µM | 16 µM | 37 µM | 34.5 µM | 4.31 µM | 4.51 µM | 14.8 µM | 6.4 µM | > 71.9 µM | 35.6 µM | 13.3 µM | – | – | –
OCCN1CCN(CCO)Cc2ccccc2OCCOc2ccccc2C1 | > 100 µM | > 100 µM | > 100 µM | > 100 µM | > 100 µM | > 100 µM | > 100 µM | > 100 µM | > 100 µM | > 100 µM | > 100 µM | > 100 µM | > 100 µM | > 100 µM | – | > 100 µM | > 100 µM | – | – | –
CCOC(=O)Cn1c(=O)c2nc(SC)sc2n(-c2ccc(C)cc2)c1=S | > 100 µM | > 100 µM | > 89.5 µM | > 100 µM | > 100 µM | > 100 µM | > 89.2 µM | 96.8 µM | 54.1 µM | 69.6 µM | > 75 µM | 61.1 µM | > 100 µM | 49.1 µM | > 100 µM | 68.1 µM | > 92 µM | > 100 µM | > 100 µM | –
CCc1cc(-c2nsc(=O)o2)c(S(=O)(=O)CC)s1 | > 100 µM | > 100 µM | > 100 µM | > 100 µM | – | 57.2 µM | > 100 µM | > 100 µM | > 100 µM | > 100 µM | > 100 µM | – | > 100 µM | > 100 µM | > 100 µM | > 100 µM | – | > 100 µM | – | –
CC(C)[Si](OC12CCC(CC1O)CC2C(=O)O)(C(C)C)C(C)C (stereo not drawn) | 59.2 µM | 41.9 µM | 34.7 µM | 27.2 µM | 36.5 µM | – | 27.9 µM | 27.7 µM | 29.1 µM | 31.6 µM | > 100 µM | – | 58.3 µM | 26.8 µM | – | 27.4 µM | – | 31.7 µM | 38 µM | –
COC(=O)C1=CC(O)CCC1c1ccc(OC)cc1 (stereo not drawn) | > 100 µM | > 100 µM | > 100 µM | > 100 µM | > 100 µM | > 100 µM | > 100 µM | > 100 µM | > 100 µM | > 100 µM | > 100 µM | > 100 µM | > 100 µM | > 100 µM | > 100 µM | > 100 µM | > 100 µM | – | – | –
CC1CC(N)=Nc2ccccc2N1Cc1ccccc1 (stereo not drawn) | 28.1 µM | 25.2 µM | 31.1 µM | 25.9 µM | 25.5 µM | 25.3 µM | 26.4 µM | 27.4 µM | 30.9 µM | 30.9 µM | – | 24.4 µM | 17.2 µM | > 100 µM | – | – | 15.4 µM | – | 27.4 µM | 26 µM
CCN1C(C)=NC2C(=O)c3ccccc3C(=O)C21 (stereo not drawn) | > 100 µM | > 100 µM | > 100 µM | – | > 100 µM | – | > 100 µM | > 100 µM | > 100 µM | > 100 µM | > 100 µM | > 100 µM | > 100 µM | > 100 µM | 79.3 µM | – | > 100 µM | – | – | –
CCOC(=O)Cc1ccc(Nc2nc3cc(C(F)(F)F)ccc3nc2C(=O)OCC)cc1 | > 100 µM | > 100 µM | > 100 µM | > 100 µM | > 100 µM | > 100 µM | > 100 µM | > 100 µM | > 100 µM | 91.6 µM | 55.3 µM | 51.5 µM | – | > 100 µM | – | > 100 µM | > 100 µM | > 100 µM | – | > 100 µM
CCC1(O)CC(OC2CC(N(C)C)C(OC3CC(O)C(OC4OC(C)C(=O)C=C4N)C(C)O3)C(C)O2)c2c(O)c3c(c(O)c2C1C(=O)OC)C(=O)c1cccc(O)c1C3=O (stereo not drawn) | 0.116 µM | 0.0845 µM | 0.036 µM | – | – | 0.203 µM | 0.299 µM | 0.0272 µM | 0.976 µM | 0.0806 µM | 0.236 µM | – | 0.0858 µM | 0.133 µM and 0.147 µM | 0.118 µM | 1.67 µM | 0.0947 µM | 1.4 µM | 0.296 µM | –
COC(=O)/C=C\c1ccc2c(c1)CC1(C2)Cc2ccc(/C=C/C(=O)OC)cc2C1 (stereo not drawn) | > 31.6 µM | > 100 µM | > 31.6 µM | > 31.6 µM | > 31.6 µM | > 31.6 µM | > 100 µM | – | > 100 µM | > 31.6 µM | > 31.6 µM | > 31.6 µM | > 31.6 µM | > 31.6 µM | > 31.6 µM | > 31.6 µM | > 31.6 µM | > 31.6 µM | > 31.6 µM | –
COc1ccc2[nH]c3c4c(c5cc(C(C)(C)C)ccc5c3c2c1)C(=O)N(c1ccccc1)C4=O | > 100 µM | > 100 µM | > 100 µM | > 100 µM | > 100 µM | > 100 µM | > 100 µM | > 100 µM | > 100 µM | > 100 µM | 49 µM | > 100 µM | > 100 µM | > 100 µM | 47.4 µM | – | > 100 µM | – | – | –
CC1(C)C(O)c2ccccc2OC1N1CCN(C2Oc3ccccc3C(O)C2(C)C)CC1 (stereo not drawn) | > 100 µM | > 100 µM | > 100 µM | > 100 µM | > 100 µM | > 100 µM | > 100 µM | – | > 100 µM | > 100 µM | > 100 µM | > 100 µM | > 100 µM | > 100 µM | > 100 µM | > 100 µM | > 100 µM | > 100 µM | > 100 µM | –
O=C(Sc1c(-c2ccccc2)c(=O)n(-c2ccccc2)c(=S)n1-c1ccccc1)c1ccc(Cl)cc1 | > 100 µM | > 100 µM | > 100 µM | > 100 µM | > 100 µM | > 100 µM | > 100 µM | – | > 100 µM | > 100 µM | > 100 µM | > 100 µM | – | > 100 µM | > 100 µM | > 100 µM | > 100 µM | > 100 µM | > 100 µM | –
CC(C#N)c1cn(S(=O)(=O)c2ccccc2)c2ccccc12 (stereo not drawn) | > 100 µM | > 100 µM | > 100 µM | – | > 100 µM | 94.9 µM | > 100 µM | > 100 µM | > 100 µM | > 100 µM | > 100 µM | – | > 100 µM | > 100 µM | > 100 µM | 53.8 µM | > 100 µM | – | – | –
CN1C(=O)n2c(nc3ccccc32)C(N=[N+]=[N-])(N=[N+]=[N-])C1=O (stereo not drawn) | > 100 µM | > 100 µM | > 100 µM | > 100 µM | > 100 µM | > 100 µM | > 100 µM | > 100 µM | > 100 µM | > 100 µM | > 100 µM | > 100 µM | > 100 µM | > 100 µM | > 100 µM | > 100 µM | > 100 µM | – | – | –
COc1ccccc1C1C2=C(COC2=O)OC(C)(C)Oc2cc3c(cc21)OCO3 (stereo not drawn) | 7.5 µM | > 49.8 µM | > 59.2 µM | > 100 µM | > 51.4 µM | > 32 µM | 98.1 µM | > 73.7 µM | 58.2 µM | > 24.8 µM | – | 4.87 µM | > 60.7 µM | > 68.8 µM | > 100 µM | > 61.5 µM | > 100 µM | > 31 µM | > 32.6 µM | –
Cc1cc(Cl)nc(NC(=O)CSc2ccc(Cl)cc2)n1 | – | > 100 µM | > 100 µM | – | > 100 µM | > 100 µM | > 100 µM | > 100 µM | > 100 µM | > 100 µM | – | > 100 µM | > 100 µM | > 100 µM | > 100 µM | > 100 µM | > 100 µM | – | > 100 µM | > 100 µM
CC(=O)N1NC(c2ccccc2)=CC(=O)/C1=C/C(=O)c1ccccc1 | > 100 µM | – | > 100 µM | > 100 µM | > 100 µM | 57.2 µM | 99.3 µM | > 100 µM | > 100 µM | > 100 µM | > 100 µM | 83 µM | > 100 µM | > 100 µM | > 100 µM | > 100 µM | > 100 µM | > 100 µM | > 100 µM | –
O=C1O/C(=C\c2ccc(O)c(Br)c2)C(c2ccc(O)cc2)=C1Cl | > 100 µM | > 100 µM | 61.6 µM | > 100 µM | > 100 µM | 68.6 µM | 86.2 µM | > 100 µM | > 100 µM | – | > 100 µM | 84.4 µM | 34 µM | > 100 µM | > 100 µM | > 100 µM | > 100 µM | 49.5 µM | – | –
CS(=O)(=O)c1nc(N)nc2nc[nH]c12 | > 100 µM | > 100 µM | > 100 µM | > 100 µM | > 100 µM | > 100 µM | > 100 µM | > 100 µM | > 100 µM | > 100 µM | > 100 µM | > 100 µM | > 100 µM | > 100 µM | > 100 µM | > 100 µM | – | – | – | –
